Data: patent US20260240208A1, “FLAVANONE COMPOUNDS AND THEIR USE AS FLAVOR MODIFIERS” (Firmenich Incorporated, priority 2023, published 2026)
Blank lines part the entries; values can stand above or below the molecule they belong to.

What was measured:
TIR sweet taste receptor = target: T1, TIR sweet taste receptor (Homo sapiens, UniProt Q7RTX0+Q8TE23); assay: in vitro cell-based assay with cells overexpressing the sweet taste receptor, sweet dose-response; conditions: for EC50: cells overexpressing TIR sweet taste receptor, sweet dose-response curves
T1 construct: expressed in transfected cells
T1 sequence (Q8TE23 20-839): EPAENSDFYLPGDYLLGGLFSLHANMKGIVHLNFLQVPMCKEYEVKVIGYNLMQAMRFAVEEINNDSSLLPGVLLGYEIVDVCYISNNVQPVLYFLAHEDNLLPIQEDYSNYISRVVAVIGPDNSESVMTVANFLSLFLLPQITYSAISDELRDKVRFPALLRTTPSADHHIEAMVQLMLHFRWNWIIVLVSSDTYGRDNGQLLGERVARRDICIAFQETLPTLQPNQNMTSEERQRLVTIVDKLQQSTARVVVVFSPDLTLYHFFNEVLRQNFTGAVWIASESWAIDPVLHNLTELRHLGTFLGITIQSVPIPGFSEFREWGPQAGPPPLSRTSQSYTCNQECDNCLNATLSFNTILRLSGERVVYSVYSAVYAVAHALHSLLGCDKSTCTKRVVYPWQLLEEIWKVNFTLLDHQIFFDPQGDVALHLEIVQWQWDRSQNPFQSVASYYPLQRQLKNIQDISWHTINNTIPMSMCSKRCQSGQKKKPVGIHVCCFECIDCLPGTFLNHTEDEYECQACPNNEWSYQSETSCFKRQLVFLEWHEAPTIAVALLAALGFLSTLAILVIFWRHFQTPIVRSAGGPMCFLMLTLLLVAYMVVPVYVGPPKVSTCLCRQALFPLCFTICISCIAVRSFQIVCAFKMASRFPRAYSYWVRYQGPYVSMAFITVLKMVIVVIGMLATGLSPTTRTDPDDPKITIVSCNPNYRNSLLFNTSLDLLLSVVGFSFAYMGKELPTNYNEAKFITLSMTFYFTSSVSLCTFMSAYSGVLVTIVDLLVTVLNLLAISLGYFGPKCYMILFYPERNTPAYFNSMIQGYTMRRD
T1 sequence (Q7RTX0 21-852): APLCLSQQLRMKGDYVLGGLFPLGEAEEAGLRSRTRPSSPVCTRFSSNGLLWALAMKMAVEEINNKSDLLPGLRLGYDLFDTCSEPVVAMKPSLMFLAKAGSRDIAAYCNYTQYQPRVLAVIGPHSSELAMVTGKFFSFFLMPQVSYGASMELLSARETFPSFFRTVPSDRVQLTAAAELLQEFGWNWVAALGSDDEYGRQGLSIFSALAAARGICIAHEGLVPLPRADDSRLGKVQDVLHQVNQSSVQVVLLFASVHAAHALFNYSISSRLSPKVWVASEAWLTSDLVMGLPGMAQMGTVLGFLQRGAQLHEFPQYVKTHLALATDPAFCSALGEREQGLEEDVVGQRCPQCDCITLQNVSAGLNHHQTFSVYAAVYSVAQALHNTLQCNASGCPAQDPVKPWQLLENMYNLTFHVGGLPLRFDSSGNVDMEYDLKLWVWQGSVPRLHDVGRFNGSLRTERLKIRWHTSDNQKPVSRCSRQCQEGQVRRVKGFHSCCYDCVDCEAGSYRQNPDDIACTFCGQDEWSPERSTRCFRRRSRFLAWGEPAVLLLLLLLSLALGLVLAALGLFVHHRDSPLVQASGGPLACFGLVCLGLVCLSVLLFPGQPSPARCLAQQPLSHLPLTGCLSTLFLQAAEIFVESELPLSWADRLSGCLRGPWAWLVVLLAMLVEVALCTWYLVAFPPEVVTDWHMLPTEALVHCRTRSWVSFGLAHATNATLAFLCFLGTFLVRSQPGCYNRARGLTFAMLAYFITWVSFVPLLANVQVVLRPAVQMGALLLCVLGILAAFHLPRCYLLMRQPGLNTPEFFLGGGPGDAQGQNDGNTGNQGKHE
Description: Each of Compounds 101-106 was synthesized. Thereafter, the compounds were tested in an in vitro cell-based assay having cells that overexpress the TIR sweet taste receptor. The sweet dose-response curves were recorded and the EC50 was determined. Table 2 summarizes calculated EC50 values for certain tested compounds.

[1] = sensory panel paired comparison: sweetness alone versus 1.5 wt % sucrose; format: in vivo, human
Description: The test samples were prepared from Compound 101 (4 ppm aqueous solution) and Compound 103 (7 ppm aqueous solution). Each of the test samples was evaluated by a sensory panel for its sweetness relative to 1.5 wt % sucrose solution. The panelists were asked to choose the sweeter sample in a pair of a compound test sample and a 1.5 wt % solution of sucrose. For Compound 101, the taste sample was selected 14 times as sweeter, while the sucrose control was selected 46 times out of total 60 times. For Compound 103, the taste sample was selected 14 times as sweeter, while the sucrose control was selected 55 times out of total 69 times.

[2] = sensory panel: sweetness enhancement of sucrose, rating on a scale of 0 to 10; format: in vivo, human; conditions: mean panel score, scale 0 to 10
Description: Two control samples were prepared of 6 wt % sucrose and 7.5 wt % sucrose in Low sodium buffer. Two test samples were prepared: one at 6 wt % sucrose plus 4 ppm of Compound 101, and the other at 6 wt % sucrose plus 7 ppm of Compound 103. Panelists were asked to evaluate the four samples and rate the sweetness on a scale of 0 to 10, with a higher rating indicating greater sweetness.

[3] = pair: Compound 103 7 ppm aqueous solution vs 1.5 wt % sucrose solution, total 69 times
[4] = pair: Compound 101 4 ppm aqueous solution vs 1.5 wt % sucrose solution, total 60 times

SMILES: CCC(=O)OC1C(=O)c2ccc(O)cc2OC1c1ccc(OC)c(O)c1 (stereo not drawn) [Compound 104, 7-hydroxy-2-(3-hydroxy-4-methoxyphenyl)-4-oxochroman-3-yl propionate]
EC50 (TIR sweet taste receptor): ~10 µM

SMILES: CC(=O)OC1C(=O)c2c(O)cccc2OC1c1ccc(O)cc1 (stereo not drawn) [Compound 106, 5-hydroxy-2-(4-hydroxyphenyl)-4-oxochroman-3-yl acetate]
EC50 (TIR sweet taste receptor): ~45 µM

SMILES: OC[C@H]1O[C@@](CO)(O[C@H]2O[C@H](CO)[C@@H](O)[C@H](O)[C@H]2O)[C@@H](O)[C@@H]1O [sucrose, reference compound]
times selected as sweeter [1, 4]: 46 times
times selected as sweeter [1, 3]: 55 times
Sweetness Score ([2]; 6 wt % sucrose alone, low sodium buffer (control)): 6.6
Sweetness Score ([2]; 7.5 wt % sucrose alone, low sodium buffer (control)): 8.6

Further lines, with some results ahead:

EC50 (TIR sweet taste receptor): ~8 µM
SMILES: COc1ccc(C2Oc3cc(O)ccc3C(=O)C2OC(C)=O)cc1O (stereo not drawn) [Compound 103, 7-hydroxy-2-(3-hydroxy-4-methoxyphenyl)-4-oxochroman-3-yl acetate]
times selected as sweeter [1, 3]: 14 times
Sweetness Score ([2]; 6 wt % sucrose + 7 ppm compound): 8.8

EC50 (TIR sweet taste receptor): ~5 µM
SMILES: CCC(=O)OC1C(=O)c2c(O)cc(O)cc2OC1c1ccc(OC)c(O)c1 (stereo not drawn) [Compound 105, 5,7-dihydroxy-2-(3-hydroxy-4-methoxyphenyl)-4-oxochroman-3-yl propionate]

EC50 (TIR sweet taste receptor): ~2 µM
agonist character (TIR sweet taste receptor; remark printed beside the EC50): partial agonist
SMILES: CCC(=O)OC1C(=O)c2c(O)cccc2OC1c1ccc(OC)c(O)c1 (stereo not drawn) [Compound 102, 5-hydroxy-2-(3-hydroxy-4-methoxy-phenyl)-4-oxochroman-3-yl propionate]

EC50 (TIR sweet taste receptor): ~1 µM
SMILES: COc1ccc(C2Oc3cccc(O)c3C(=O)C2OC(C)=O)cc1O (stereo not drawn) [Compound 101, 5-hydroxy-2-(3-hydroxy-4-methoxy-phenyl)-4-oxochroman-3-yl acetate]
times selected as sweeter [1, 4]: 14 times
Sweetness Score ([2]; 6 wt % sucrose + 4 ppm compound): 9.8
